In paper PMC8833476, “Short-Term Effects of Temperature and Thyrotropin-Releasing Hormone Stimulation on Adrenocorticotropin Stability in Horses” (Animals : an Open Access Journal from MDPI, 2022):

Key:
[1] = human blood samples at room temperature; cited from earlier work
[2] = Short-term stability of immunoreactive ACTH in whole blood stored 1 h at 4, 20, 30, 40 or 70 °C; format: in vitro ADME, horse; settings: for Mean change of immunoreactive ACTH concentration after 1 h: whole blood 1 h at 20 °C vs 4 °C; for ACTH concentration as percentage of the reference sample (4 °C = 100%), range over horses: equine EDTA whole blood
Method: For horses that underwent TRH stimulation, blood was collected 30 min after receiving 1 mg of TRH intravenously (Sigma-Aldrich Pty Ltd. (subsidiary of Merck), North Ryde BC, New South Wales, Australia). Blood was sampled between 7 and 8 am. All procedures were approved by the University of Queensland Animal Ethics Committee, approval number SVS/474/17, 22nd December 2017.
Samples were taken to the laboratory within 1 h of collection. They were then stored as whole blood either in a temperature-monitored refrigerator (4 °C), in a temperature-controlled room (20 °C), or in incubators (30, 40, or 70 °C) for 1 h. Samples were then centrifuged at 3500× g at 4 °C for 10 min. The plasma was separated and analyzed within 2 h of collection from the horse. […] Due to the necessity of analyzing all samples within a 2-h window from collection, and limitations on the speed of the analyzer, the 15 horses were sampled over a 4-day period. The samples from each horse were run using the same kit.
The reference sample was defined as the sample stored at 4 °C.

[3] = delaying centrifugation of horse blood by 1 h; cited from earlier work
[4] = room temperature (21 °C), analyzed prior to 8 h; mostly PPID-negative horses; cited from earlier work
Source text: In contrast, our study found t ...

Mean change of immunoreactive ACTH concentration after 1 h ([2]; PPID horses)	Bland–Altman mean bias of ACTH concentration, 4 versus 20 °C ([2]; equine EDTA whole blood stored 1 h at 20 °C vs 4 °C reference, then centrifuged, plasma immunoreactive ACTH by Immulite 1000 chemiluminescent assay, 15 horses)	Bland–Altman mean bias of ACTH concentration, 4 versus 30 °C ([2]; equine EDTA whole blood stored 1 h at 30 °C vs 4 °C reference, Immulite 1000 chemiluminescent assay, 15 horses)	Bland–Altman mean bias of ACTH concentration, 4 versus 40 °C ([2]; equine EDTA whole blood stored 1 h at 40 °C vs 4 °C reference, Immulite 1000 chemiluminescent assay, 15 horses)	Bland–Altman mean bias of ACTH concentration, 4 versus 70 °C ([2]; equine EDTA whole blood stored 1 h at 70 °C vs 4 °C reference, Immulite 1000 chemiluminescent assay, only 9 of 15 samples analysable)	ACTH concentration as percentage of the reference sample (4 °C = 100%), range over horses ([2]; 1 h at 20 °C, Immulite 1000 chemiluminescent assay, 15 horses (PPID and non-PPID, basal and post-TRH), not significant)	ACTH concentration as percentage of the reference sample (4 °C = 100%), range over horses ([2]; 1 h at 30 °C, Immulite 1000, 15 horses, not significant)	ACTH concentration as percentage of the reference sample (4 °C = 100%), range over horses ([2]; 1 h at 40 °C, Immulite 1000, 15 horses, not significant)	ACTH concentration as percentage of the reference sample (4 °C = 100%), range over horses ([2]; 1 h at 70 °C, Immulite 1000, 9 of 15 samples analysable (solidification), p = 0.001)	Mean change of immunoreactive ACTH concentration after 1 h ([2]; non-PPID horses)	Measured ACTH concentration, reference sample ([2]; one non-PPID horse, post-TRH stimulation, whole blood 1 h at 4 °C, single horse)	Measured ACTH concentration after storage ([2]; one non-PPID horse, post-TRH stimulation, whole blood 1 h at 20 °C, single horse)	Measured ACTH concentration after storage ([2]; one non-PPID horse, post-TRH stimulation, whole blood 1 h at 40 °C, single horse)	Deviation of measured ACTH concentration above the same sample stored at 4 °C ([2]; whole blood 1 h at 20 °C, maximum over horses)	Substance	Time at room temperature prior to centrifugation at which the measured ACTH concentration is altered [1]	Mean reduction in the measured ACTH concentration [3]	Difference between samples kept at room temperature and at 4 °C [4]
														human ACTH: endogenous human ACTH, reported as highly unstable due to proteolytic degradation (SYSMEHFRWGKPVGKKRRPVKVYPNGAEDESAEAFPLEF; Corticotropin; UniProt P01189 138-176, looked up)	≥ 4 h		
5%	-2.8 pg/mL	-1.38 pg/mL	-0.16 pg/mL	10.1 pg/mL	84.3 to 122.1%	89.4 to 115.6%	86.5 to 116.3%	72 to 94.4%	12%	60.9 pg/mL	69.1 pg/mL	70.8 pg/mL	up to 22%	adrenocorticotropic hormone [ACTH]		11.6 pg/mL	no difference
